In US20140349948A1, “Treatment of Chronic Constipation” (Forest Laboratories Holdings Limited, priority 2009, published 2014):
Marks after values point to notes of the source that are not given here. Residues, ends and D or L forms follow the SMILES beside them.

Key:
[1] = Systemic linaclotide levels after oral administration; type: in vivo; conditions: after oral administration at therapeutic dose levels
Source text: (§1) Linaclotide is a peptide GC-C agonist that is orally administered and currently in clinical trials for treatment of irritable bowel syndrome with constipation (IBS-c) and CC.

CC = assay: Phase 2b studies for CC, four-week treatment; type: in vivo; conditions: throughout the four-week treatment period
Source text: as §1

[2] = test system: patients with chronic constipation; assay: Chronic Constipation Trial 2, 12-week treatment period; type: in vivo, human; conditions: for Straining, Week 1 Mean Change from Baseline / Abdominal discomfort, Week 1 Mean Change from Baseline / Bloating, Week 1 Mean Change from Baseline / Constipation severity, Week 1 Mean Change from Baseline: 5-point scale: 1 = none; for Straining, Week 1 Mean Change from Baseline: 5 = an extreme amount; for Abdominal discomfort, Week 1 Mean Change from Baseline / Bloating, Week 1 Mean Change from Baseline / Constipation severity, Week 1 Mean Change from Baseline: 5 = very severe; for Stool Consistency, Week 1 Mean Change from Baseline: 7-point scale (BSFS)
Procedure: (§2) Linaclotide Capsules from Example 4 were administered in multicenter, randomized, double-blind, placebo-controlled trials.
(§3) Trial 1 was conducted in 630 patients meeting modified Rome II criteria for chronic constipation. The trial included a two-week pretreatment baseline period and a 12-week treatment period. A diagram of the study design for Trial 2 is given in FIG. 1, which is substantially similar to Trial 1 except for the addition of a Randomized Withdrawal period in Trial 2 as described below.
The Treatment Period began with randomization and lasted for 12 weeks. Patients were randomized to treatment with 133 μg linaclotide, 266 μg linaclotide, or placebo (1:1:1), taken once daily in the morning. Patients continued to provide their daily assessments such as their daily bowel habit assessments and daily patient symptom severity assessments.
(§4) Trial 2 was conducted in 642 patients and was identical to Trial 1 except that Trial 2 also included a four-week Randomized Withdrawal Period, defined below. During the two-week pretreatment (baseline) period, 68 percent of patients in Trial 2 had no CSBMs.

[3] = test system: patients with chronic constipation; assay: Trials 1 and 2 pooled; type: in vivo, human
Procedure: as §2, §3, §4

[4] = Trial 2, 133 μg (p≦0.0001) and 266 μg (p≦0.0001)
[5] = 133 μg, Pooled (n = 430), 5-point scale: 1 = none, 5 = very severe

With C[C@@H]1NC(=O)[C@@H]2CCCN2C(=O)[C@H](CC(N)=O)NC(=O)[C@@H]2CSSC[C@H](N)C(=O)N[C@H]3CSSC[C@H](NC1=O)C(=O)N[C@@H]([C@@H](C)O)C(=O)NCC(=O)N[C@H](C(=O)N[C@@H](Cc1ccc(O)cc1)C(=O)O)CSSC[C@H](NC(=O)[C@H](Cc1ccc(O)cc1)NC(=O)[C@H](CCC(=O)O)NC3=O)C(=O)N2 [Linaclotide, Cys1 Cys2 Glu3 Tyr4 Cys5 Cys6 Asn7 Pro8 Ala9 Cys10 Thr11 Gly12 Cys13 Tyr14] (HELM PEPTIDE1{C.C.E.Y.C.C.N.P.A.C.T.G.C.Y}$PEPTIDE1,PEPTIDE1,1:R3-6:R3|PEPTIDE1,PEPTIDE1,2:R3-10:R3|PEPTIDE1,PEPTIDE1,5:R3-13:R3$$$V2.0) the levels seen systemically [1] was “no detectable levels”, the “effect on constipation, abdominal discomfort, and bloating” value (CC) was “reduced constipation, abdominal discomfort, and bloating” and the “CSBM rate, Week 1 Mean Change from Baseline” value (from here on “CSBM rate, Week 1 Mean Change”) ([2]; 133 μg, Trial 2 (n = 217)) was 1.89***. For the same molecule, the “SBM rate, Week 1 Mean Change from Baseline” value ([2]; 133 μg, Trial 2 (n = 217)) was 3.59***, the “Straining, Week 1 Mean Change from Baseline” value (shortened to “Straining, Week 1 Mean Change”) ([2]; 133 μg, Trial 2 (n = 217)) was −0.99*** and the “Abdominal discomfort, Week 1 Mean Change from Baseline” value ([2]; 133 μg, Trial 2 (n = 217)) was −0.23. The “Bloating, Week 1 Mean Change from Baseline” value (shortened to “Bloating, Week 1 Mean Change”) ([2]; 133 μg, Trial 2 (n = 217)) was −0.32**, the “Constipation severity, Week 1 Mean Change from Baseline” value ([2]; 133 μg, Trial 2 (n = 217)) was −0.80*** and the “Stool Consistency, Week 1 Mean Change from Baseline” value ([2]; 133 μg, Trial 2 (n = 217)) was 1.75***. For the same molecule, the “CSBM rate, Week 1 Mean Change” value ([2]; 266 μg, Trial 2 (n = 216)) was 2.02***, the “SBM rate, Week 1 Mean Change from Baseline” value ([2]; 266 μg, Trial 2 (n = 216)) was 3.61*** and the “Straining, Week 1 Mean Change” value ([2]; 266 μg, Trial 2 (n = 216)) was −1.06***. The “Abdominal discomfort, Week 1 Mean Change from Baseline” value ([2]; 266 μg, Trial 2 (n = 216)) was −0.21, the “Bloating, Week 1 Mean Change” value ([2]; 266 μg, Trial 2 (n = 216)) was −0.27* and the “Constipation severity, Week 1 Mean Change from Baseline” value ([2]; 266 μg, Trial 2 (n = 216)) was −0.76***. For the same molecule, the “Stool Consistency, Week 1 Mean Change from Baseline” value ([2]; 266 μg, Trial 2 (n = 216)) was 1.81***, the “12-week CSBM overall responder rate” value ([2]; Trial 2, 133 μg) was 21.2% and the “increase in average weekly CSBMs from baseline” value ([2]; Trial 2, 133 μg) was 1.9. The “increase in average weekly SBMs from baseline” value ([2]; Trial 2, 133 μg) was 3.0, the “numerical increase of 12-week CSBM overall responder rate as compared to placebo” value ([2]; Trial 2, 133 μg) was 6.3 fold and the “patients reporting at least one CSBM within 24 hours of treatment” value ([2]; Trial 2, 133 μg) was 33.2%. The “patients reporting at least one SBM within 24 hours of treatment” value ([2]; Trial 2, 133 μg) was 70.0%, the “patients who experienced weekly CSBMs in at least nine out of 12 weeks” value ([2]; Trial 2, 133 μg) was 21.7% and the “patients with increase of ≧1 from baseline in weekly CSBMs in at least nine out of 12 weeks” value ([2]; Trial 2, 133 μg) was 39.2%. The “patients with increase of ≧1 from baseline in weekly CSBMs in at least six out of 12 weeks” value ([2]; Trial 2, 133 μg) was 56.7%, the “12-week CSBM overall responder rate” value ([2]; Trial 2, 266 μg) was 19.4% and the “increase in average weekly CSBMs from baseline” value ([2]; Trial 2, 266 μg) was 2.0. For the same molecule, the “increase in average weekly SBMs from baseline” value ([2]; Trial 2, 266 μg) was 3.0, the “numerical increase of 12-week CSBM overall responder rate as compared to placebo” value ([2]; Trial 2, 266 μg) was 5.8 fold and the “patients reporting at least one CSBM within 24 hours of treatment” value ([2]; Trial 2, 266 μg) was 26.9%. For the same molecule, the “patients reporting at least one SBM within 24 hours of treatment” value ([2]; Trial 2, 266 μg) was 54.6%, the “patients who experienced weekly CSBMs in at least nine out of 12 weeks” value ([2]; Trial 2, 266 μg) was 19.4% and the “patients with increase of ≧1 from baseline in weekly CSBMs in at least nine out of 12 weeks” value ([2]; Trial 2, 266 μg) was 37.0%. For the same molecule, the “patients with increase of ≧1 from baseline in weekly CSBMs in at least six out of 12 weeks” value ([2]; Trial 2, 266 μg) was 50.5%, the “PAC-QOL overall assessments, 12 week overall mean change versus placebo” value [2, 4] was “statistically significant improvements” and the “overall constipation severity score, 12 week overall mean change versus placebo” value [2, 4] was “statistically significant improvements”. For the same molecule, the “severity of straining score, 12 week overall mean change versus placebo” value [2, 4] was “statistically significant improvements”, the “stool consistency score, 12 week overall mean change versus placebo” value [2, 4] was “statistically significant improvements” and the “bloating score, 12 week overall mean change versus placebo” value ([2]; Trial 2, 133 μg (p≦0.0001) and 266 μg (p≦0.01)) was “statistically significant improvements”. The “abdominal discomfort score, 12 week overall mean change versus placebo” value ([2]; Trial 2, 133 μg (p≦0.001) and 266 μg (p≦0.01)) was “statistically significant improvements”, the “abdominal discomfort in week 2” value ([2]; study 2, week 2 (p<0.01)) was “Statistically significant improvement” and the “CSBM rate, Week 1 Mean Change” value ([3]; 133 μg, Pooled (n = 430)) was 2.02**. The “SBM rate, Week 1 Mean Change from Baseline” value ([3]; 133 μg, Pooled (n = 430)) was 3.96***, the “Straining, Week 1 Mean Change” value ([3]; 133 μg, Pooled (n = 430), 5-point scale: 1 = none, 5 = an extreme amount) was −1.02*** and the “Abdominal discomfort, Week 1 Mean Change from Baseline” value [3, 5] was −0.26***. The “Bloating, Week 1 Mean Change” value [3, 5] was −0.31***, the “Constipation severity, Week 1 Mean Change from Baseline” value [3, 5] was −0.82*** and the “Stool Consistency, Week 1 Mean Change from Baseline” value ([3]; 133 μg, Pooled (n = 430), 7-point scale (BSFS)) was 1.78***. The “CSBM rate, Week 1 Mean Change” value ([3]; 266 μg, Pooled (n = 418)) was 2.42**.
